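Tested at 5 concentrations; 48 h exposure; 96-well plates; endpoints linearly interpolated, else capped at highest concentration. TGI: concentration producing complete growth inhibition.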
Experiments:
Test in all cases: growth of human tumour cells (NCI), 48 h
T-47D breast = test system: T-47D breast
NCI-H460 lung = test system: NCI-H460 lung
KM12 colon = test system: KM12 colon
K-562 leukemia = test system: K-562 leukemia
HCT-116 colon = test system: HCT-116 colon
HS 578T breast = test system: HS 578T breast
MOLT-4 leukemia = test system: MOLT-4 leukemia
A549 NSCLC = test system: A549 NSCLC
BT-549 breast = test system: BT-549 breast
SNB-19 CNS = test system: SNB-19 CNS
MCF7 breast = test system: MCF7 breast
MALME-3M melanoma = test system: MALME-3M melanoma
SK-OV-3 ovarian = test system: SK-OV-3 ovarian
OVCAR-4 ovarian = test system: OVCAR-4 ovarian
HCT-15 colon = test system: HCT-15 colon
MDA-N = test system: MDA-N
SW-620 colon = test system: SW-620 colon
SR leukemia = test system: SR leukemia
SF-539 CNS = test system: SF-539 CNS
LOX IMVI melanoma = test system: LOX IMVI melanoma
OVCAR-3 ovarian = test system: OVCAR-3 ovarian
HT29 colon = test system: HT29 colon
SF-295 CNS = test system: SF-295 CNS
MDA-MB-435 = test system: MDA-MB-435
NCI-H522 lung = test system: NCI-H522 lung
UO-31 renal = test system: UO-31 renal
SK-MEL-28 melanoma = test system: SK-MEL-28 melanoma
OVCAR-8 ovarian = test system: OVCAR-8 ovarian
HOP-62 NSCLC = test system: HOP-62 NSCLC
IGROV1 ovarian = test system: IGROV1 ovarian
NCI/ADR-RES ovarian = test system: NCI/ADR-RES ovarian
PC-3 prostate = test system: PC-3 prostate
UACC-62 melanoma = test system: UACC-62 melanoma
U251 CNS = test system: U251 CNS
COLO 205 colon = test system: COLO 205 colon
OVCAR-5 ovarian = test system: OVCAR-5 ovarian
SK-MEL-5 melanoma = test system: SK-MEL-5 melanoma
UACC-257 melanoma = test system: UACC-257 melanoma
DU-145 prostate = test system: DU-145 prostate
EKVX NSCLC = test system: EKVX NSCLC
CCRF-CEM leukemia = test system: CCRF-CEM leukemia
SF-268 CNS = test system: SF-268 CNS
CAKI-1 renal = test system: CAKI-1 renal
HL-60(TB) leukemia = test system: HL-60(TB) leukemia
SN12C renal = test system: SN12C renal
HCC-2998 colon = test system: HCC-2998 colon
SK-MEL-2 melanoma = test system: SK-MEL-2 melanoma
RPMI-8226 leukemia = test system: RPMI-8226 leukemia
786-0 renal = test system: 786-0 renal
ACHN renal = test system: ACHN renal
A498 renal = test system: A498 renal
NCI-H23 lung = test system: NCI-H23 lung
M14 melanoma = test system: M14 melanoma

With O=C(Nc1cccc(F)c1)c1cc2ccc(O)cc2oc1=Nc1ccccc1F the TGI (T-47D breast) was 12.1 µM, the TGI (NCI-H460 lung) was > 100 µM and the TGI (KM12 colon) was 22.4 µM. For the same molecule, the TGI (K-562 leukemia) was > 100 µM, the TGI (HCT-116 colon) was 12.9 µM and the TGI (HS 578T breast) was 14.1 µM. It also gave a TGI (MOLT-4 leukemia) of 24.7 µM, a TGI (A549 NSCLC) of 13.8 µM and a TGI (BT-549 breast) of 8.61 µM. It also gave a TGI (SNB-19 CNS) of 21 µM, a TGI (MCF7 breast) of 25.7 µM and a TGI (MALME-3M melanoma) of 18.6 µM. The TGI (SK-OV-3 ovarian) was 15.9 µM, the TGI (OVCAR-4 ovarian) was 26.8 µM and the TGI (HCT-15 colon) was 13.8 µM. The TGI (MDA-N) was 17.7 µM, the TGI (SW-620 colon) was 45.4 µM and the TGI (SR leukemia) was 39.5 µM. It also gave a TGI (SF-539 CNS) of 27 µM, a TGI (LOX IMVI melanoma) of 7.15 µM and a TGI (OVCAR-3 ovarian) of 14.7 µM. For the same molecule, the TGI (HT29 colon) was 51.5 µM, the TGI (SF-295 CNS) was 23.6 µM and the TGI (MDA-MB-435) was 14.2 µM. For the same molecule, the TGI (NCI-H522 lung) was 10.3 µM, the TGI (UO-31 renal) was 14.2 µM and the TGI (SK-MEL-28 melanoma) was 18 µM. The TGI (OVCAR-8 ovarian) was 5.85 µM, the TGI (HOP-62 NSCLC) was 24.6 µM and the TGI (IGROV1 ovarian) was 7.44 µM. For the same molecule, the TGI (NCI/ADR-RES ovarian) was 10.3 µM, the TGI (PC-3 prostate) was 24.3 µM and the TGI (UACC-62 melanoma) was 24 µM. For the same molecule, the TGI (U251 CNS) was 13.4 µM, the TGI (COLO 205 colon) was 41.7 µM and the TGI (OVCAR-5 ovarian) was 36.1 µM. For the same molecule, the TGI (SK-MEL-5 melanoma) was 9.57 µM, the TGI (UACC-257 melanoma) was 31.1 µM and the TGI (DU-145 prostate) was 15.1 µM. It also gave a TGI (EKVX NSCLC) of 6.17 µM, a TGI (CCRF-CEM leukemia) of 6.42 µM and a TGI (SF-268 CNS) of 15.4 µM. For the same molecule, the TGI (CAKI-1 renal) was 15 µM, the TGI (HL-60(TB) leukemia) was 7.48 µM and the TGI (SN12C renal) was 22.5 µM. The TGI (HCC-2998 colon) was 28.7 µM, the TGI (SK-MEL-2 melanoma) was 18.7 µM and the TGI (RPMI-8226 leukemia) was > 100 µM. For the same molecule, the TGI (786-0 renal) was 17.1 µM, the TGI (ACHN renal) was 14.2 µM and the TGI (A498 renal) was 35.6 µM. It also gave a TGI (NCI-H23 lung) of 5.86 µM and a TGI (M14 melanoma) of 17.4 µM.

Reference: PubChem BioAssay (NCI)
